For assay [1], the target named is T1, Recombinant Human EPO R/Fc Chimera (Homo sapiens, UniProt P19235).
T1 construct: recombinant EPOr extracellular domain fused to the Fc portion of human IgG1; purchased R&D Systems (Minneapolis, MN, US) 963-ER
T1 sequence (P19235 25-250 limits assumed): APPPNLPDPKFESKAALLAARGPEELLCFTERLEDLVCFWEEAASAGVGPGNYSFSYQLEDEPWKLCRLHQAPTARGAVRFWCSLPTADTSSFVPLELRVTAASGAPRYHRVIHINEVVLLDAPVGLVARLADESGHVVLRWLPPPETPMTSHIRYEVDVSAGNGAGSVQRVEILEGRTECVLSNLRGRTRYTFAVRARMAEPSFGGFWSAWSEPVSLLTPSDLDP
In words: Radioligand competitive binding assay (125I-EPO). To be noted: Table 6; competition with 125I-EPO, 4° C. overnight. Here is the method: An alternative radioligand competition binding assay can also be used to measure IC50 values of peptides in this invention. This assay measures binding of ^125I-EPO to EPOr. The assay is preferably performed according to the following exemplary protocol:
One 50 μg vial of lyophilized recombinant EPOr extracellular domain fused to the Fc portion of human IgG1 is reconstituted in 1 mL of assay buffer. […] Tubes are capped and mixed gently at 4° C. overnight on a LabQuake rotating shaker.
The next day, 50 μL of a 50% slurry of Protein-G Sepharose is added to each tube. Tubes are then incubated for 2 hours at 4° C., mixing gently. The tubes are then centrifuged for 15 min at 4000 RPM (3297×G) to pellet the protein-G sepharose. The supernatants are carefully removed and discarded. After washing 3 times with 1 mL of 4° C. assay buffer, the pellets are counted in a Wallac Wizard gamma counter. Results are then analyzed and the dilution required to reach 50% of the maximum binding value is calculated.
The next day, bound ^125I-EPO is quantitated as described above. The results are analyzed and the IC50 value calculated using Graphpad Prism version 4.0, from GraphPad Software, Inc. (San Diego, Calif.). The assay is repeated two or more times for each peptide tested, for a total of 3 or more replicate IC50 determinations. See Table 6 for IC50 values of Peptide I.

The subject of assay [2] is human, bone marrow derived CD34+ cells. In words: C/BFU-e assay (erythroid colony formation). The format is cell-based. The following applies: Table 6; colonies 90% of maximum relative to EPO control, 14 days. From the text: EPO-R signaling stimulates the differentiation of bone marrow stem cells into proliferating red blood cell presursors. This assay measures the ability of test peptides to stimulate the proliferation and differentiation of red blood cell precursors from primary human bone marrow pluripotent stem cells.
For this assay, serial dilutions of test peptide are made in IMDM medium (Gibco) supplemented with 10% FBS (Hyclone). […] The methylcellulose and peptide mixture is then vortexed thoroughly. Aliquots (100,000 cells/mL) of human, bone marrow derived CD34+ cells (Poietics/Cambrex) are thawed. The thawed cells are gently added to 0.1 mL of 1 mg/ml DNAse (Stem Cells) in a 50 mL tube. Next, 40-50 mL IMDM medium is added gently to cells: the medium is added drop by drop along the side of the 50 mL tube for the first 10 mL, and then the remaining volume of medium is slowly dispensed along the side of the tube. The cells are then spun at 900 rpm for 20 min, and the media removed carefully by gentle aspiration. The cells are resuspended in 1 ml of IMDM medium and the cell density per mL is counted on hemacytometer slide (10 μL aliquot of cell suspension on slide, and cell density is the average count×10,000 cells/ml). The cells are then diluted in IMDM medium to a cell density of 15,000 cells/mL. A 100 μL of diluted cells is then added to each 1.5 mL methyl cellulose plus peptide sample (final cell concentration in assay media is 1000 cells/mL), and the mixture is vortexed. Allow the bubbles in the mixture to disappear, and then aspirate 1 mL using blunt-end needle. Add 0.25 mL aspirated mixture from each sample into each of 4 wells of a 24-well plate (Falcon brand). Incubate the plated mixtures at 37° C. under 5% CO2 in a humid incubator for 14 days. Score for the presence of erythroid colonies using a phase microscope (5×-10× objective, final magnification of 100×).
EPO-R signaling stimulates the differentiation of bone marrow stem cells into proliferating red blood cell precursors. […]

Assay [3] concerns the target chimeric receptor comprising the extra-cellular portion of the human EPO receptor to the intra-cellular portion of the human GCSF receptor. In words: Reporter assay (Baf3/EpoR/GCSFR fos/lux luciferase). The format is cell-based. To be noted: Table 6; Baf3/EpoR/GCSFR fos/lux cells, 4 h. From the text: This assay is based upon a on a murine pre-B-cell line derived reporter cell, Baf3/EpoR/GCSFR fos/lux. This reporter cell line expresses a chimeric receptor comprising the extra-cellular portion of the human EPO receptor to the intra-cellular portion of the human GCSF receptor. This cell line is further transfected with a fos promoter-driven luciferase reporter gene construct. Activation of this chimeric receptor through addition of erythropoietic agent results in the expression of the luciferase reporter gene, and therefore the production of light upon addition of the luciferase substrate luciferin. Thus, the level of EPO-R activation in such cells may be quantitated via measurement of luciferase activity.
The Baf3/EpoR/GCSFR fos/lux cells are cultured in DMEM/F12 medium (Gibco) supplemented with 10% fetal bovine serum (FBS; Hyclone), 10% WEHI-3 supernatant (the supernatant from a culture of WEHI-3 cells, ATCC #TIB-68), and penicillin/streptomycin. […] Following a 5-minute incubation, light emission is measured on a Packard Topcount Luminometer (Packard Instrument Co., Downers Grove, Ill.). Light counts are plotted relative to test peptide concentration and analysed using Graph Pad software. The concentration of test peptide that results in a half-maximal emission of light is recorded as the EC50 [See Table 2: Reporter EC50]. […]
A general note: Reporter assays use an easily measured gene product as a stand-in for the process of interest.

What is called IC50 is the point on the concentration scale where inhibition reaches its midpoint. In general, EC90 refers to the point of the concentration-response curve where the effect stands at 90%. What is called EC50 is the midpoint of the concentration-response curve. Low values mean higher potency in that assay, high ones lower potency in that assay.

Bridges are numbered along the chain shown (N, C = ends). Where no end group is shown, it is not given here. [ ]: non-standard residue; d: D form. 1Nal = N[C@@H](Cc1cccc2ccccc12)C(=O)O; Sar = CNCC(=O)O

For “peptide dimer of monomers (AcG)GLYACHMGPIT(1-nal)VCQPLR(MeG)K (SEQ ID NO: 2) (Ac-GGLYACHMGPIT[1Nal]VCQPLR[Sar]K; disulfide 6-15 (inferred); not fully specified (residue 1); printed as (AcG)GLYACHMGPIT(1-nal)VCQPLR(MeG)K; also: homodimer, dimer linkage not given here) [Peptide I]”, the IC50 in assay [1] worked out at 0.111 nM. This substance had an EC90 in assay [2] of 3 nM. The substance further showed an EC50 in assay [3] of 0.195 nM.

Values taken from patent US8729030B2 (Affymax, Inc., priority 2003, dated 2014).
